Experimental data taken from patent US9018231B2, “Sulfone compounds as 5-HT6 receptor ligands” (Suven Life Sciences Limited, priority 2010, dated 2015).
Structures can show the parent of a compound that is named as a salt. Where two headings read alike, the source gives them in different places. Blank lines part the entries; values can stand above or below the compound they belong to.

Columns and labels:
[1] = target: T1, recombinant human 5-HT6 receptor (Homo sapiens, UniProt P50406); assay: Determination of Kb values for 5-HT6 receptor (CHO pCRE-Luc reporter assay); assay type: cell-based; settings: antagonism of 10 uM serotonin, luciferase reporter, CHO cells
T1 construct: expressed in transfected cells
Procedure: A stable CHO cell line expressing recombinant human 5-HT6 receptor and pCRE-Luc reporter system was used for cell-based assay. The assay offers a non-radioactive based approach to determine binding of a compound to GPCRs. In this specific assay, the level of intracellular cyclic AMP which is modulated by activation or inhibition of the receptor is measured. The recombinant cells harbor luciferase reporter gene under the control of cAMP response element.
The above cells were grown in 96 well clear bottom white plates in Hams F12 medium containing 10% fetal bovine serum (FBS). Prior to the addition of compounds and/or agonist, cells were serum starved overnight. Increasing concentrations of test compounds were added along with 10 uM serotonin in Hams F12 medium containing 1% dialyzed FBS to the cells. The incubation was continued at 37° C. in CO2 incubator for 4 hours. Medium was removed and cells were washed with phosphate buffered saline. The cells were lysed and luciferase activity was measured in a Luminometer. Luminescence units were plotted against the compound concentrations using Graphpad software. EC50 values of the compounds were defined as the concentration required reducing the luciferase activity by 50%. The Kb values were calculated by feeding the concentration of the agonist used in the assay and its EC50 value in the same software.

[2] = Rodent pharmacokinetic study; assay type: in vivo; settings: plasma, Wistar/Male rat, 10 mg/kg; for AUC(0-t) / half-life / Cmax / Tmax: vehicle water (Ex. 8: 50% PEG 400); for Cmax: read-out: Cmax; for Tmax: read-out: Tmax; for bioavailability: Oral vs Intravenous, read-out: Bioavailability
Procedure: Male wistar rats (230-280 grams) obtained from NIN (National Institute of Nutrition, Hyderabad, India) were used as an experimental animal. Three to five animals were housed in each cage. Animals were kept fasted over night and maintained on a 12 hours light/dark cycle. Three rats were dosed NCE (10 mg/Kg) orally and intravenously on day 0 and day 2.
At each time point blood was collected by jugular vein. Plasma was stored frozen at −20° C. until analysis. The concentrations of the NCE compound in plasma were determined using LC-MS/MS method. Schedule time points: Pre dose 0.25, 0.5, 1, 1.5, 2, 3, 4, 6, 8, 10, 12 and 24 hours after dosing (n=3). The NCE compounds were quantified in plasma by validated LC-MS/MS method using solid phase extraction technique. NCE compounds were quantified in the calibration range of 2-2000 ng/mL in plasma. Study samples were analyzed using calibration samples in the batch and quality control samples spread across the batch.
Pharmacokinetic parameters Cmax, Tmax, AUCt, T1/2 and Bioavailability were calculated by non-compartmental model using software WinNonlin version 5.1.

[3] = Object recognition task model; assay type: in vivo; settings: rat, p.o.
Procedure: The cognition-enhancing properties of compounds of this invention were estimated using a model of animal cognition: the object recognition task model.
Male Wister rats (230-280 grams) obtained from N.I.N. (National Institute of Nutrition, Hyderabad, India) was used as experimental animals. Four animals were housed in each cage. Animals were kept on 20% food deprivation before one day and given water ad libitum throughout the experiment and maintained on a 12 hours light/dark cycle. Also the rats were habituated to individual arenas for 1 hour in the absence of any objects.
One group of 12 rats received vehicle (1 mL/Kg) orally and another set of animals received compound of the formula (I) either orally or i.p., before one hour of the familiar (T1) and choice trial (T2).
The experiment was carried out in a 50×50×50 cm open field made up of acrylic. In the familiarization phase, (T1), the rats were placed individually in the open field for 3 minutes, in which two identical objects (plastic bottles, 12.5 cm height×5.5 cm diameter) covered in yellow masking tape alone (a1 and a2) were positioned in two adjacent corners, 10 cm. from the walls. After 24 hours of the (T1) trial for long-term memory test, the same rats were placed in the same arena as they were placed in T1 trial. Choice phase (T2) rats were allowed to explore the open field for 3 minutes in presence of one familiar object (a3) and one novel object (b) (Amber color glass bottle, 12 cm high and 5 cm in diameter). Familiar objects presented similar textures, colors and sizes. During the T1 and T2 trial, explorations of each object (defined as sniffing, licking, chewing or having moving vibrissae whilst directing the nose towards the object at a distance of less than 1 cm) were recorded separately by stopwatch. Sitting on an object was not regarded as exploratory activity, however, it was rarely observed. T1 is the total time spent exploring the familiar objects (a1+a2). T2 is the total time spent exploring the familiar object and novel object (a3+b).
The object recognition test was performed as described by Ennaceur, A., Delacour, J., 1988, A new one-trial test for neurobiological studies of memory in rats—Behavioural data, Behav. Brain Res., 31, 47-59.

T1 sequence (P50406 whole entry): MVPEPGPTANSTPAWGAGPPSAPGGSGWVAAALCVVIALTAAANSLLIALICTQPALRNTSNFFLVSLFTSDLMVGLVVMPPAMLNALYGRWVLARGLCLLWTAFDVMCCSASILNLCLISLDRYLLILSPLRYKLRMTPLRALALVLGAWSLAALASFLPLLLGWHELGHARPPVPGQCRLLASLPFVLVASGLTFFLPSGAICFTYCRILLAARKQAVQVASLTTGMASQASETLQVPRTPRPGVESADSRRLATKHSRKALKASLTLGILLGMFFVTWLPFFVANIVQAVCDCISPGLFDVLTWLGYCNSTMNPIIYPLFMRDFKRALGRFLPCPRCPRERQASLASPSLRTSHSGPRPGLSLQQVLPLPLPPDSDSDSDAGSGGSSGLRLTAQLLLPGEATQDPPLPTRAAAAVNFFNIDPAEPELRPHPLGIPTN

melting point: 240.3 to 243.2 °C
SMILES: COc1ccc2[nH]cc(S(=O)(=O)c3ccc(Cl)c(NC4CCN(C)CC4)c3)c2c1.Cl

Kb [1]: 0.01 nM | AUC(0-t) ([2]; Intravenous): 1610 ± 544 ng·h/mL | half-life ([2]; Intravenous): 1.57 ± 0.21 h | Cmax ([2]; Intravenous): 1080 ± 569 ng/mL | Tmax ([2]; Intravenous): 0.12 ± 0.09 h | bioavailability [2]: 38 ± 1% | AUC(0-t) ([2]; Oral): 931 ± 186 ng·h/mL | half-life ([2]; Oral): 1.35 ± 0.27 h | Cmax ([2]; Oral): 341 ± 60 ng/mL | Tmax ([2]; Oral): 0.56 ± 0.31 h
SMILES: COc1ccc(S(=O)(=O)c2cc(Br)ccc2OC)cc1NC1CCN(C)CC1.Cl [Example 3, N-[5-(5-Bromo-2-methoxybenzenesulfonyl)-2-methoxyphenyl]-N-(1-methylpiperidin-4-yl)amine hydrochloride salt]
Exploration time mean ± S.E.M, Familiar object ([3]; 1 mg/kg): 4.53 ± 0.72 s | Exploration time mean ± S.E.M, Novel object ([3]; 1 mg/kg): 10.29 ± 1.54 s | Inference ([3]; 1 mg/kg): Active

Kb [1]: 3.38 nM
SMILES: CN1CCC(Nc2cccc(S(=O)(=O)c3c[nH]c4cc(Cl)ccc34)c2)CC1 [Example 5, N-(1-Methylpiperidin-4-yl)-N-[3-(6-chloro-1H-indole-3-ylsulfonyl)phenyl]amine hydrochloride]

Kb [1]: 3.59 nM | melting point: 229.7 to 233.1 °C
SMILES: CN1CCC(Nc2cccc(S(=O)(=O)c3c[nH]c4ccc(F)cc34)c2)CC1.Cl [Example 6, N-(1-Methylpiperidin-4-yl)-N-[3-(5-fluoro-1H-indole-3-ylsulfonyl)phenyl]amine hydrochloride]

Kb [1]: 5.7 nM | AUC(0-t) ([2]; Intravenous): 6950 ± 3450 ng·h/mL | half-life ([2]; Intravenous): 5.64 ± 0.95 h | Cmax ([2]; Intravenous): 1340 ± 426 ng/mL | Tmax ([2]; Intravenous): 0.08 h | bioavailability [2]: 58 ± 12% | AUC(0-t) ([2]; Oral): 3810 ± 1340 ng·h/mL | half-life ([2]; Oral): 9.06 ± 2.13 h | Cmax ([2]; Oral): 327 ± 99 ng/mL | Tmax ([2]; Oral): 3 h | melting point: 189.7 to 194.2 °C
SMILES: CN1CCC(Nc2cc(S(=O)(=O)c3c[nH]c4cc(Cl)ccc34)ccc2Cl)CC1.Cl [Example 8, N-(1-Methylpiperidin-4-yl)-N-[2-chloro-5-(6-chloro-1H-indole-3-ylsulfonyl)phenyl]amine hydrochloride]

Kb [1]: 0.05 nM
SMILES: COc1ccc(S(=O)(=O)c2c[nH]c3ccccc23)cc1NC1CCN(C)CC1 [Example 11, N-(1-Methylpiperidin-4-yl)-N-[2-methoxy-5-(1H-Indole-3-ylsulfonyl)phenyl]amine]
Exploration time mean ± S.E.M, Familiar object ([3]; 3 mg/kg): 9.19 ± 1.44 s | Exploration time mean ± S.E.M, Novel object ([3]; 3 mg/kg): 14.24 ± 1.29 s | Inference ([3]; 3 mg/kg): Active

Kb [1]: 0.11 nM
SMILES: COc1ccc2[nH]cc(S(=O)(=O)c3ccc(OC)c(NC4CCN(C)CC4)c3)c2c1 [Example 13, N-(1-Methylpiperidin-4-yl)-N-[2-methoxy-5-(5-methoxy-1H-Indole-3-ylsulfonyl)phenyl]amine]

Kb [1]: 0.16 nM
SMILES: COc1ccc2[nH]cc(S(=O)(=O)c3ccc(OC)c(NC4CCNCC4)c3)c2c1 [Example 14, N-(Piperidin-4-yl)-N-[2-methoxy-5-(5-methoxy-1H-Indole-3-ylsulfonyl)phenyl]amine]

melting point: 186.1 to 189.9 °C
SMILES: CN1CCC(Nc2cc(S(=O)(=O)c3c[nH]c4cc(Cl)ccc34)ccc2Cl)CC1 [Example 15, N-(1-Methylpiperidin-4-yl)-N-[2-chloro-5-(6-chloro-1H-Indole-3-ylsulfonyl)phenyl] amine]

Kb [1]: 6.1 nM
SMILES: COc1ccc(Br)cc1S(=O)(=O)c1ccc(C)c(NC2CCNCC2F)c1 (centres unmarked) [Example 18, N-[5-(5-Bromo-2-methoxybenzenesulfonyl)-2-methylphenyl]-N-(3-fluoropiperidin-4-yl) amine hydrochloride]

Kb [1]: 1.1 nM
SMILES: COc1ccc(Br)cc1S(=O)(=O)c1ccc(C)c(NC2CCNCC2)c1 [Example 22, N-[5-(5-Bromo-2-methoxybenzenesulfonyl)-2-methylphenyl]-N-(piperidin-4-yl)amine hydrochloride]

Kb [1]: 2.1 nM
SMILES: COc1ccc(Br)cc1S(=O)(=O)c1ccc(C)c(NC2CCN(C)CC2)c1 [Example 23, N-[5-(5-Bromo-2-methoxybenzenesulfonyl)-2-methylphenyl]-N-(1-methylpiperidin-4-yl)amine hydrochloride]

Kb [1]: 0.1 nM | AUC(0-t) ([2]; Intravenous): 3470 ± 161 ng·h/mL | half-life ([2]; Intravenous): 1.46 ± 0.13 h | Cmax ([2]; Intravenous): 1920 ± 29 ng/mL | Tmax ([2]; Intravenous): 0.08 h | bioavailability [2]: 44 ± 18% | AUC(0-t) ([2]; Oral): 1520 ± 630 ng·h/mL | half-life ([2]; Oral): 1.36 ± 0.07 h | Cmax ([2]; Oral): 429 ± 181 ng/mL | Tmax ([2]; Oral): 0.83 ± 0.29 h
SMILES: COc1ccc(S(=O)(=O)c2cc(Br)ccc2OC)cc1NC1CCNCC1F.Cl (centres unmarked) [Example 28, N-[5-(5-Bromo-2-methoxybenzenesulfonyl)-2-methoxyphenyl]-N-(3-fluoropiperidin-4-yl)amine hydrochloride]
Exploration time mean ± S.E.M, Familiar object ([3]; 1 mg/kg): 6.26 ± 0.30 s | Exploration time mean ± S.E.M, Novel object ([3]; 1 mg/kg): 11.46 ± 1.02 s | Inference ([3]; 1 mg/kg): Active

Kb [1]: 0.1 nM
SMILES: COc1ccc(S(=O)(=O)c2cc(Br)ccc2OC)cc1NC1CCNCC1 [Example 29, N-[5-(5-Bromo-2-methoxybenzenesulfonyl)-2-methoxyphenyl]-N-(piperidin-4-yl)amine hydrochloride]

Kb [1]: 0.01 nM
SMILES: COc1ccc(S(=O)(=O)c2ccc(OC)c(NC3CCN(C)CC3)c2)cc1Br [Example 30, N-[5-(3-Bromo-4-methoxybenzenesulfonyl)-2-methoxyphenyl]-N-(1-methylpiperidin-4-yl)amine tartarate]

Kb [1]: 0.05 nM
SMILES: COc1ccc(S(=O)(=O)c2cc(F)ccc2OC)cc1NC1CCN(C)CC1 [Example 31, N-[5-(5-Fluoro-2-methoxybenzenesulfonyl)-2-methoxyphenyl]-N-(1-methylpiperidin-4-yl)amine tartarate]

Kb [1]: 0.06 nM
SMILES: COc1ccc(S(=O)(=O)c2ccc(Cl)cc2)cc1NC1CCN(C)CC1 [Example 32, N-[5-(4-Chlorobenzenesulfonyl)-2-methoxyphenyl]-N-(1-methylpiperidin-4-yl)amine tartarate]

Kb [1]: 0.1 nM
SMILES: COc1ccc(S(=O)(=O)c2ccc(OC)c(NC3CCN(C)CC3)c2)cc1Cl [Example 34, N-[5-(3-Chloro-4-methoxybenzenesulfonyl)-2-methoxyphenyl]-N-(1-methylpiperidin-4-yl)amine tartarate]

SMILES: Cc1ccc(S(=O)(=O)c2ccccc2)cc1NC1CCN(C)CC1 [Example 35, N-(5-Benzenesulfonyl-2-methylphenyl)-N-(1-methylpiperidin-4-yl)amine]
Exploration time mean ± S.E.M, Familiar object ([3]; 10 mg/kg): 9.37 ± 1.66 s | Exploration time mean ± S.E.M, Novel object ([3]; 10 mg/kg): 15.81 ± 2.89 s | Inference ([3]; 10 mg/kg): Active
